Assay results as given in US7998926B2, “Dimerized T-cell receptor fragment, its compositions and use” (The Arizona Boad of Regents on Behfl of the University of …, priority 2001, dated 2011).
Positions of bridges follow the written chain, without caps; N, C: chain ends. Chains are numbered I, II in the order given. No end group written: not given here.

Experiments:
[1] = Immunomodulatory effects of homologs of the β3 peptide
IFN-γ = IFN-γ production of splenocyte of LP-BM5-infected mice; type: in vivo, C57BL/6 mice; settings: 200 μg/mouse, vs infected saline group
Text: FIG. 5. IFN-γ production of splenocyte. […] “a” indicates significant differences at P <0.05 compared with uninfected saline treatment group. “b” indicates significant differences at P<0.05 compared with infected saline treatment group.
(§1) Female C57BL/6 mice, four weeks old, were obtained from the Charles River Laboratories Inc. (Wilmington, Del.). Animals were cared for as required by the University of Arizona Committee on Animal Research. After two weeks housing in the Central Animal Facility, University of Arizona, they were randomly assigned to one of the following treatment groups: uninfected normal mice (four mice); LP-BM5-infected mice treated with saline (pyrogen free; six mice); LP-BM5-infected mice treated with 200 μg TCR Vβ3 monomer peptide (six mice); LP-BM5-infected mice treated with 200 μg TCR Vβ3 dimer peptide (six mice). […] Intraperitoneal administration of monomer and dimer peptides (dissolved in saline) was performed two and six weeks after LP-BM5 infection. Infection to of these mice with LP-BM5 retrovirus leads to the rapid induction of clinical symptoms with virtually no latent phase.

splenocyte B cells = assay: LPS-stimulated splenocyte proliferation (B cells) of LP-BM5-infected mice; type: in vivo, C57BL/6 mice; settings: 200 μg/mouse, vs infected saline group
Text: FIG. 3. LPS-stimulated splenocyte proliferation. […] “a” indicates significant differences at p<0.05 compared with uninfected saline treatment group. “b” indicates significant differences at […] compared with infected saline treatment group.
as §1

IL-4 = assay: Interleukin-4 production of splenocyte of LP-BM5-infected mice; type: in vivo, C57BL/6 mice; settings: 200 μg/mouse, mitogen-stimulated splenocytes, vs infected saline group
Text: FIG. 6. Interleukin-4 production of splenocyte. […] “a” indicates significant differences at P<0.05 compared with uninfected saline treatment group, “b” indicates significant differences at P<0.05 compared with infected saline treatment group.
as §1

IL-6 = assay: Interleukin-6 production of splenocyte of LP-BM5-infected mice; type: in vivo, C57BL/6 mice; settings: 200 μg/mouse, mitogen-stimulated splenocytes, vs infected saline group
Text: FIG. 7. Interleukin-6 production of splenocyte. […] “a” indicates significant differences at p<0.05 compared with uninfected saline treatment group. “b” indicates significant differences at p<0.05 compared with infected saline treatment group.
as §1

LP-BM5 retrovirus = assay: Spleen weight in LP-BM5 retrovirus-infected mice; type: in vivo, C57BL/6 mice; settings: 200 μg peptide intraperitoneally two and six weeks after infection, relative to untreated infected animals
Text: FIG. 1. Spleen weight. The spleen weights were substantially (p<0.05) elevated in the infected mice relative to the uninfected animals. […] “a” indicates significant differences at p<0.05 compared with uninfected saline treatment.
as §1

splenocyte T cells = assay: Con A-stimulated splenocyte proliferation (T cells) of LP-BM5-infected mice; type: in vivo, C57BL/6 mice; settings: 200 μg/mouse, vs infected saline group
Text: FIG. 2. Con A-stimulated splenocyte proliferation. […] “a” indicates significant differences at p<0.05 compared with uninfected saline treatment group. “b” indicates significant differences at p<0.05 compared with infected saline treatment group.
as §1

aged mice = settings: injection of peptide, not highly dimerised; cited from earlier work
IL-2 = IL-2 production of splenocyte of LP-BM5-infected mice; type: in vivo, C57BL/6 mice; settings: 200 μg/mouse, vs infected saline group
Text: FIG. 4. IL-2 production of splenocyte. […] “a” indicates significant differences at p<0.05 compared with uninfected saline treatment group. “b” indicates significant differences at p<0.05 compared with infected saline treatment group.
as §1

C S P K S G H D T V S W Y Q Q A (CSPKSGHDTVSWYQQA) [Pep Vβ5.2]
Immunomodulatory effects compared with the β3 peptide [1]: Active

TCR Vβ3 dimer: homodimer of two SEQ ID NO:1 peptide monomers, formed through a disulphide bond at the N-terminal cysteine (chain 1 CKPISGHNSLFWYRQT; chain 2 CKPISGHNSLFWYRQT; disulfide I:1-II:1)
IFN-γ production of splenocyte (IFN-γ): significantly (p<0.05) normalized IFN-γ production | IFN-γ production of splenocyte (IFN-γ; listed as Vβ3 peptide dimers): at least as effective as the monomer | LPS-stimulated splenocyte proliferation (B cell proliferation) (splenocyte B cells): significantly (p<0.05) prevented the suppression of T-cell proliferation | LPS-stimulated splenocyte proliferation (B cell proliferation) (splenocyte B cells; listed as Vβ3 peptide dimers): at least as effective as the monomer | Interleukin-4 production of splenocyte (IL-4): significantly (p<0.05) normalized IL-4 | Interleukin-4 production of splenocyte (IL-4; listed as Vβ3 peptide dimers): at least as effective as the monomer | Interleukin-6 production of splenocyte (IL-6): at least as effective as the monomer | Spleen weight (splenomegaly) (LP-BM5 retrovirus): significant reduction in spleen weight | Spleen weight (splenomegaly) (LP-BM5 retrovirus; listed as Vβ3 peptide dimers): at least as effective as the monomer | Con A-stimulated splenocyte proliferation (T-cell proliferation) (splenocyte T cells): significantly (p<0.05) prevented the suppression of T-cell proliferation | Con A-stimulated splenocyte proliferation (T-cell proliferation) (splenocyte T cells; listed as Vβ3 peptide dimers): at least as effective as the monomer

CKPISGHNSLFWYRQT [TCR Vβ3 monomer, 16-mer TCR Vβ CDR1 peptide of T-cell receptor β chain clone YT35, monomer form, reference compound]
Immunosenescence (aged mice): reduces immunosenescence in aged mice | IFN-γ production of splenocyte (IFN-γ): significantly (p<0.05) normalized IFN-γ production | LPS-stimulated splenocyte proliferation (B cell proliferation) (splenocyte B cells): significantly (p<0.05) prevented the suppression of T-cell proliferation | IL-2 production of splenocyte (IL-2): significantly (p<0.05) normalized IL-2 production | Interleukin-6 production of splenocyte (IL-6): significantly (p<0.05) normalized IL-6 | Spleen weight (splenomegaly) (LP-BM5 retrovirus): significant reduction in spleen weight | Con A-stimulated splenocyte proliferation (T-cell proliferation) (splenocyte T cells): significantly (p<0.05) prevented the suppression of T-cell proliferation
